The source made the active and inactive calls. No cut-off for these calls is given here.
How the values were obtained:
[1] = target: T1, Neuronal acetylcholine receptor; alpha4/beta2 (Homo sapiens) (UniProt P17787+P43681); experiment: Antagonist activity at alpha4beta2 nAChR (unknown origin) expressed in Xenopus laevis oocytes assessed as reduction in acetylcholine-induced peak current at 30 uM at -60 mV holding potential by electrophysiology method; format: cell-based
[2] = target: T2, Neuronal acetylcholine receptor; alpha3/beta4 (Homo sapiens, UniProt P30926+P32297); experiment: Antagonist activity at human alpha3beta4 nAChR expressed in Xenopus laevis oocytes assessed as reduction in acetylcholine-induced peak current at -60 mV holding potential by electrophysiology method; format: cell-based
T2 sequence (P30926 whole entry): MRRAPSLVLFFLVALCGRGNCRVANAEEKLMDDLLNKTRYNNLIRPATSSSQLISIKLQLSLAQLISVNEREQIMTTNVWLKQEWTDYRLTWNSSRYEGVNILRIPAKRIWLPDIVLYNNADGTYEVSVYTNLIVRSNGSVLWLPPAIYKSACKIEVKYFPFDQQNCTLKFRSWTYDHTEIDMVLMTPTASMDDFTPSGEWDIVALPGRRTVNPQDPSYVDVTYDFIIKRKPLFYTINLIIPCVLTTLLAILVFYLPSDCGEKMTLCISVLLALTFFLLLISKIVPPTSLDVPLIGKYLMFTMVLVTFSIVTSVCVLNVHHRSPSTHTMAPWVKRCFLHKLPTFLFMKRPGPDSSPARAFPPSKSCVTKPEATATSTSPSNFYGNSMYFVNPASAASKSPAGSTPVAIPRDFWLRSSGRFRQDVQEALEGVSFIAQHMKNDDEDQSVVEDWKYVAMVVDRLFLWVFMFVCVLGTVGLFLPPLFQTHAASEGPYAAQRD
T2 sequence (P32297 whole entry): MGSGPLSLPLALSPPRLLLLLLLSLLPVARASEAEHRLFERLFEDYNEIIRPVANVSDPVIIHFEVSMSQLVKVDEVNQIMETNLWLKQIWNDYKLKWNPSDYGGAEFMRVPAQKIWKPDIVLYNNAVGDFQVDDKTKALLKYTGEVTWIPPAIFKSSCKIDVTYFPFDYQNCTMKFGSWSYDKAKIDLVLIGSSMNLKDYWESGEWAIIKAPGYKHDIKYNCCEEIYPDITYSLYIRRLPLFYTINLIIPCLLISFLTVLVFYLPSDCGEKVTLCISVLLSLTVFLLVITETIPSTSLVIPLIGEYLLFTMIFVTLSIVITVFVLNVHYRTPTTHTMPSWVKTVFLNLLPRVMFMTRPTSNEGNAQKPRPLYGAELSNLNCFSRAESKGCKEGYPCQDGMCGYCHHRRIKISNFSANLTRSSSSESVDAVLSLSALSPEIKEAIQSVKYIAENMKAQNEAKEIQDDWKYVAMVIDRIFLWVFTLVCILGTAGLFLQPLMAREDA

[3] = target: T2, Neuronal acetylcholine receptor; alpha3/beta4; experiment: Agonist activity at human alpha3beta4 nAChR expressed in Xenopus laevis oocytes assessed as increase in peak current at 100 uM at -60 mV holding potential by electrophysiology method; format: cell-based
[4] = target: T1, Neuronal acetylcholine receptor; alpha4/beta2 (Homo sapiens); experiment: Agonist activity at alpha4beta2 nAChR (unknown origin) expressed in Xenopus laevis oocytes assessed as increase in peak current at 30 uM at -60 mV holding potential by electrophysiology method; format: cell-based
[5] = target: T2, Neuronal acetylcholine receptor; alpha3/beta4; experiment: Antagonist activity at human alpha3beta4 nAChR expressed in Xenopus laevis oocytes assessed as reduction in acetylcholine-induced peak current at 100 uM at -60 mV holding potential by electrophysiology method; format: cell-based
[6] = target: Neuronal acetylcholine receptor subunit alpha-7 (Homo sapiens) (UniProt P36544); experiment: Antagonist activity at alpha7 nAChR (unknown origin) expressed in Xenopus laevis oocytes assessed as reduction in acetylcholine-induced peak current at 60 uM at -60 mV holding potential by electrophysiology method; format: cell-based
Chain of Neuronal acetylcholine receptor subunit alpha-7 (Homo sapiens) (P36544 whole entry): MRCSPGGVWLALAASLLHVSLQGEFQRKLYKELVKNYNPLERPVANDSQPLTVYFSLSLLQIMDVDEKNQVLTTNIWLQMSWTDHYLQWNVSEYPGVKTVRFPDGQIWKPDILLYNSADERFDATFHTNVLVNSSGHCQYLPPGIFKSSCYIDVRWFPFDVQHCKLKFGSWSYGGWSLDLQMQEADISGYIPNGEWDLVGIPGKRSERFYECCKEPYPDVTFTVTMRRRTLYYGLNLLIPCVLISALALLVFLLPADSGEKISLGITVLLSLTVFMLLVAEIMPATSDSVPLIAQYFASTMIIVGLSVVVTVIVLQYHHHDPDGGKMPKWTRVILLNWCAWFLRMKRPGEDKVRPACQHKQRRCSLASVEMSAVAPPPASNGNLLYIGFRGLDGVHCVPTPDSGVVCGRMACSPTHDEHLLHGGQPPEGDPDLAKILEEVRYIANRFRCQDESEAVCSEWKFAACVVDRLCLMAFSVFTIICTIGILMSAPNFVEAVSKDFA

[7] = target: Neuronal acetylcholine receptor subunit alpha-7 (Homo sapiens) (UniProt P36544); experiment: Agonist activity at alpha7 nAChR (unknown origin) expressed in Xenopus laevis oocytes assessed as increase in peak current at 60 uM at -60 mV holding potential by electrophysiology method; format: cell-based
[8] = target: Neuronal acetylcholine receptor; experiment: Binding affinity to nAChR in rat brain membranes; format: cell membranes, Membrane

Row | inhibition [1] | IC50 [2] [µM] | Ki [2] [µM] | Activity [3] | Activity [4] | inhibition [5] | inhibition [6] | Activity [7] | SMILES | Kd [8] [µM]
1 | inactive | 20 | 0.123 | inactive | inactive | Active | inactive | inactive | CN1CCC=C(c2cnc(F)c(-c3ccccc3)c2)C1 | 
2 |  |  |  |  |  |  |  |  | CN1CCC=C(c2ccc(Cl)nc2)C1 | 0.0022

From ChEMBL document CHEMBL4177568 (Bioorg Med Chem Lett, 2017)
